We go through five compounds from publication PMC10094510, “Novel Cannabinoid Receptor 2 (CB2) Low Lipophilicity Agonists Produce Distinct cAMP and Arrestin Signalling Kinetics without Bias” (International Journal of Molecular Sciences, 2023).

Assay [1] deals with T1, human CB2 (Homo sapiens, UniProt P34972, Q63R).
T1 construct: HA (N); 3TCS (N); expressed in transfected cells; host or cells: HEK-293S cells, transient transfection (PEI max)
Kind of assay: Real-time BRET CAMYEL cAMP biosensor, forskolin-stimulated HEK-293S cells transfected with human CB2. As to conditions: for 2.5 min EC75 concentration (log[compound] M): cAMP assay, calculated from mean EC50 at 2.5 min, Figure S1; for time of peak cAMP response (maximal efficacy): during 20 min stimulation; for time of peak cAMP response (maximal efficacy) / cAMP ΔEmax (absolute magnitude percentage decrease from 100%): 5 μM forskolin; for cAMP ΔEmax (absolute magnitude percentage decrease from 100%) / decrease in cAMP pEC50 in comparison with CP55,940: mean over 20 min stimulation; for cAMP ΔEmax (absolute magnitude percentage decrease from 100%): normalised to V 0% and F 100%. It counts as cell-based. On the procedure:
(§1) HEK-293S cells (HEK-S; generously provided by Professor David Poyner, Aston Research Centre, RRID:CVCL_A784 [48]) were maintained in T75 flasks (Corning-Costar) with Dulbecco’s Modified Eagle’s Medium high glucose with phenol red, L-glutamine and sodium pyruvate (DMEM; Cytiva SH30243), and 8% foetal bovine serum (FBS; NZ-origin, Moregate Biotech) at 37 °C in a humidified atmosphere containing 5% CO2.
(§2) Poly-D-Lysine (PDL) (Sigma-Aldrich) at 0.05 mg/mL in PBS was incubated in wells of 96-well Solid White Flat Bottom Polystyrene TC-treated Microplate (Corning-Costar) at 37 °C for 1 h, then washed with PBS prior to seeding and transfection. Cells were seeded at 45,000 cells/well in DMEM supplemented with 12% FBS.
(§3) Plasmids encoding human CB2 (HA-3TCS-hCB2 63R pcDNA5/FRT; 28.5 ng per well) or no receptor (pcDNA5/FRT/CAT; 23.5 ng per well; Thermo Fisher Scientific, Waltham, MA, USA), and either His-CAMYEL (in pcDNA3L; 24 ng per well; ATCC MBA-277; previously described in [49]), or a mix of Rluc8-hβ-arrestin2-Sp1 (in pcDNA3; 0.5 ng per well; previously described in [19]) and Mem-linker-Citrine-SH3 (in pcDNA3; 20 ng per well; previously described in [19, 50]) were diluted in DMEM. Diluted DNA was then co-incubated with polyethyleneimine max (PEI max; Polysciences, Warrington, PA, USA) (Total DNA:PEI ratio of 1:7.5 or 1:6.7 for cAMP or β-arrestin-2 experiments, respectively) in DMEM for 1 h at room temperature (~19–21 °C). These transfection mixes were then added to plated cells, resulting in a final concentration of 8% FBS. Plates were incubated for ~48 h before assaying.
(§4) The protocol for measuring levels of cellular cAMP via real-time BRET biosensor (CAMYEL) is adapted from previous publications. In all cAMP experiments, forskolin (Tocris Bioscience, Bristol, UK) was used to stimulate the activation of adenylyl cyclase to raise intracellular cAMP levels. Vehicle (DMSO) was maintained at an equivalent concentration across all conditions. Assays were carried out in technical duplicate. Then, ~48 h post-transfection, plating media was aspirated, and wells were washed with H+B, consisting of HBSS (Life Technologies) and 1 mg/mL BSA (ICPbio). H+B was then added to the wells to initiate a 30 min serum starve at 37 °C. Post-serum starve, coelenterazine h (final concentration 5 μM, NanoLight Technologies, Norman, OK, USA, #301) was added to the wells, and a 5 min pre-reading was conducted using the LUMIstar® Omega luminometer (Rluc and YFP emissions detected at 460 nm and 535 nm, respectively; BMG Labtech, Ortenberg, Germany). Next, forskolin (final concentration 5 μM) was added to all wells (except vehicle-only wells which received DMSO), and plate reading resumed for 5 min. Lastly, CB2 compounds of interest with forskolin, vehicle with forskolin, or vehicle without forskolin, were added to their respective wells, and a final 20 min read was conducted. All compounds and reagents were diluted in H+B prior to addition to the plate. For β-arrestin-2 recruitment assays, an equivalent procedure was followed except no forskolin was included in the assay stimulations.
(§5) BRET ratios were calculated by dividing YFP emissions by Rluc emissions, then for the cAMP assay, normalised to the mean of baseline ratio reads (where only coelenterazine h was present) to eliminate any variability present prior to drug addiction. An increase in BRET ratio indicated a decrease in cAMP levels or increase in β-arrestin-2 recruitment. Lowess smoothing (GraphPad Prism) was applied to individual technical replicates within an assay. Concentration response curves for the mean of technical replicates (CRC; “log(agonist) vs. response (three parameters)” nonlinear regression curve model, Hill slope constrained to 1) were drawn for the mean ratios over 20 min stimulation or individual time-points.

Assay [2] concerns the target T1, human CB2. Kind of assay: Real-time BRET β-arrestin-2 plasma membrane translocation, HEK-293S cells transfected with human CB2. It is filed as cell-based. As to conditions: for β-arrestin-2 translocation ΔEmax (% increase above V): normalised to vehicle 100%. On the procedure: as §1, §2, §3, §4, §5
In the next assay the target is T2, human CB1 (Homo sapiens, UniProt P21554).
T2 construct: pplss (N); 3HA (N); expressed in transfected cells
T2 sequence (P21554 whole entry): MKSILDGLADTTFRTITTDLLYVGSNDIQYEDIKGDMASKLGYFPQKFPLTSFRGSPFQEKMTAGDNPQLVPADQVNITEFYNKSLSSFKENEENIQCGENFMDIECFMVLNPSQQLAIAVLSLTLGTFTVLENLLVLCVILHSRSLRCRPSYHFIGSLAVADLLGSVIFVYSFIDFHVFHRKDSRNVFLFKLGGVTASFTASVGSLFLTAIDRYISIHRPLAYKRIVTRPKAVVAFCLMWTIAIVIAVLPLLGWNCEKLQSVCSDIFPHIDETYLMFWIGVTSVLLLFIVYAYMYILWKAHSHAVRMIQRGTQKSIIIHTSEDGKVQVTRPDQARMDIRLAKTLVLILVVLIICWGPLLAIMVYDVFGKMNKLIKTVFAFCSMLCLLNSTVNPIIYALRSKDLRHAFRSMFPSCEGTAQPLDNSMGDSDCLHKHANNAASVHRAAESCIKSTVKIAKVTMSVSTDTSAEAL
The assay can be described thus: Competition radioligand binding assay ([3H]-CP55,940), hCB1 membranes. On the procedure:
Preparation of hCB1- and hCB2-membranes from a HEK pplss-3HA-hCB1 cell line and HEK Flp-in HA-3TCS-hCB2 63R cell line, respectively, followed the protocol described previously. […] The concentration of DMSO was kept equivalent across all test conditions. All dilutions were dispensed into a 96-well, polypropylene V-bottom plate (Gene Era Biotech, Hangzhou, China). […] All conditions were carried out in technical duplicate. The plate was then sealed, tap-mixed, then incubated at 30 °C for 1 h. A total of 50 µL of 0.1% PEI (Sigma-Aldrich, St. Louis, MI, USA) in MQ water was added to each well of a 96-well GF/C harvest plate (Perkin Elmer) 1 h prior to the harvest. When the incubation finished, vacuum (~5 mmHg) was applied to the harvest plate and wells were washed (50 mM HEPES pH 7.4, 500 mM NaCl, 1 mg/mL BSA, MQ water, ice cold). Subsequently, the contents of the V-bottom plate were transferred to corresponding wells in the harvest plate, wash buffer was used to wash the remaining contents of the V-bottom wells before transferring this to the harvest plate, then the harvest plate was washed an additional three times. The plate was dried for ~24 h at 24 °C. To prepare for reading, the bottom of the plate was sealed, each well received 50 µL of Irgasafe Plus scintillation fluid (Perkin Elmer), followed by sealing the top of the plate. Plates were read in a Wallac MicroBeta® TriLux Liquid Scintillation Counter (Perkin Elmer) with a read time of 2 min/well.
(§6) GraphPad Prism (v8.0.2; GraphPad Software, San Diego, CA, USA) was used to fit nonlinear regression curves (One site—Fit Ki) to the corrected counts per minutes (CCPM) of each displacer to determine their pKi (negative log Ki). […] Mean and SEM of pKi values were calculated from independent experiments. […] CB2 selectivity was calculated as […].

The target of assay [3] is T1, human CB2. The assay can be described thus: Competition radioligand binding assay ([3H]-CP55,940), hCB2 membranes. As to conditions: for CB2/CB1 Selectivity: CB2 selectivity relative to CB1, from Ki (or Kd); for displacement of [3H]-CP55,940 from CB2: full displacement = ≥ 75% relative to 1 µM CP55,940. On the procedure: The concentration of DMSO was kept equivalent across all test conditions. All dilutions were dispensed into a 96-well, polypropylene V-bottom plate (Gene Era Biotech, Hangzhou, China). […] All conditions were carried out in technical duplicate. The plate was then sealed, tap-mixed, then incubated at 30 °C for 1 h. A total of 50 µL of 0.1% PEI (Sigma-Aldrich, St. Louis, MI, USA) in MQ water was added to each well of a 96-well GF/C harvest plate (Perkin Elmer) 1 h prior to the harvest. When the incubation finished, vacuum (~5 mmHg) was applied to the harvest plate and wells were washed (50 mM HEPES pH 7.4, 500 mM NaCl, 1 mg/mL BSA, MQ water, ice cold). Subsequently, the contents of the V-bottom plate were transferred to corresponding wells in the harvest plate, wash buffer was used to wash the remaining contents of the V-bottom wells before transferring this to the harvest plate, then the harvest plate was washed an additional three times. The plate was dried for ~24 h at 24 °C. To prepare for reading, the bottom of the plate was sealed, each well received 50 µL of Irgasafe Plus scintillation fluid (Perkin Elmer), followed by sealing the top of the plate. Plates were read in a Wallac MicroBeta® TriLux Liquid Scintillation Counter (Perkin Elmer) with a read time of 2 min/well.
as §6
In general terms: Displacement assays read how much labelled ligand stays bound in the presence of the test substance.

Another assay deals with CB2. More on the design: method as in PMID 31024316. As to conditions: cited from earlier work.

T1 sequence (P34972 whole entry Q63R): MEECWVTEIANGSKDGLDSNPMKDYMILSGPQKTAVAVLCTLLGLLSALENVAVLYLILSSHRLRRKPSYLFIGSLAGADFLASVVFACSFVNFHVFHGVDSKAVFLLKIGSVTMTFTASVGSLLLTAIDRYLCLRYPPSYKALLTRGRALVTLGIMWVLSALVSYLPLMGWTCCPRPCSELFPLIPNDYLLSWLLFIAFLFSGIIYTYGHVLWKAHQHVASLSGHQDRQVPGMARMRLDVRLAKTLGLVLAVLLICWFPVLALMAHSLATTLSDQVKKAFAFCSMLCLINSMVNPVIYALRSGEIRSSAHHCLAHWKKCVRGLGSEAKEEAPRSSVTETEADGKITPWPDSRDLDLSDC

Regarding `CCCCCCC(C)(C)c1ccc([C@@H]2C[C@H](O)CC[C@H]2CCCO)c(O)c1` [CP55,940, reference compound], on human CB2 [1], the “2.5 min EC75 concentration (log[compound] M)” value is -7.3 log M, the “time of peak cAMP response (maximal efficacy)” value (“time of peak cAMP response” below) was ≤ 2.5 min and the “cAMP ΔEmax (absolute magnitude percentage decrease from 100%)” value was 35.1% ± 3.5%. The “increase of cAMP response potency during the acute 5 min period” value at human CB2 [1] (not significant vs 2.5 min) is ~ 0.5 log units. Besides, the “time to plateau of β-arrestin-2 efficacy” value on human CB2 [2] (20 min stimulation) was “approximately 5 min”. Besides, the “overall increase of β-arrestin-2 response potency during the stimulation” value at human CB2 [2] (20 min stimulation, vs 1.5 min) is reported as ~ 0.7 log units. Also, the “β-arrestin-2 translocation ΔEmax (% increase above V)” value at human CB2 [2] (mean over 20 min stimulation) is given as 17.6% ± 0.8%.

Usually Ki stands for the equilibrium dissociation constant of an inhibitor or competing ligand from its target. One may read the EC50 as the concentration at which the effect is half-maximal. Read a high EC50 as a less potent agent. With `O=C(N[C@H]1CC[C@@H](O)CC1)c1cc2cccnc2n(CCN2CCOCC2)c1=O` [UOMM18], at human CB1, the inhibition constant (Ki) is > 100000 nM. Besides, on human CB1 (highest applied concentration 31.6 µM), the “displacement of [3H]-CP55,940 at CB1” value is given as “did not detectably displace”. In addition, at human CB2 [1], the EC50 was 63.1 nM, the “2.5 min EC75 concentration (log[compound] M)” value is -7.1 log M, the “time of peak cAMP response” value stood at 2.5 min and the “decrease in cAMP pEC50 in comparison with CP55,940” value is reported as ~ 0.8 log units. Besides, the “cAMP ΔEmax (absolute magnitude percentage decrease from 100%)” value on human CB2 [1] worked out at 28.0 ± 2.4%. It took 126 nM to reach a half-maximal effect at human CB2 [2] (EC50). The “β-arrestin-2 translocation ΔEmax (% increase above V)” value at human CB2 [2] (mean over 20 min stimulation) is recorded as 7.3 ± 0.6%. In addition, on human CB2 [2] (relative to CP55,940), the “agonist type for β-arrestin-2 translocation” value is “partial agonist”. Besides, at human CB2 [3], the inhibition constant (Ki) was 724 nM and the “CB2/CB1 Selectivity” value was >126. Besides, the “CB2 affinity lower than pKd of CP55,940” value on human CB2 [3] (p < 0.0001) is recorded as ~ 2.5 log units.

As for `CCc1c(C)cc(C(=O)NC2(C(=O)NCCOCCOCCO)CCCCC2)c(=O)n1Cc1ccc(F)cc1` [UOSS75], at human CB1, the inhibitory constant (Ki) was ~15100 nM. Also, on human CB2 [1], the midpoint of the response, the EC50, lay at 10 nM; the “2.5 min EC75 concentration (log[compound] M)” value is listed as -7.6 log M; the “time of peak cAMP response” value is 2.5 min; the “cAMP ΔEmax (absolute magnitude percentage decrease from 100%)” value turned out to be 31.4 ± 3.9%. At human CB2 [2], the EC50 is 100 nM. Moreover, at human CB2 [2] (mean over 20 min stimulation), the “β-arrestin-2 translocation ΔEmax (% increase above V)” value was determined as 8.5 ± 0.7%. Further, on human CB2 [3], the affinity corresponds to a Ki of 148 nM, the “CB2/CB1 Selectivity” value is listed as ~100 and the “displacement of [3H]-CP55,940 from CB2” value was “fully displaced”.

Consider `CCc1c(C)cc(C(=O)NC2(C(=O)NCCOCCOCCOCCO)CCCCC2)c(=O)n1Cc1ccc(F)cc1` [UOSS76], for which the Ki at human CB1 was ~29500 nM. Besides, on human CB2 [1], the response was half-maximal at 100 nM (EC50), the “2.5 min EC75 concentration (log[compound] M)” value was -6.9 log M, the “time of peak cAMP response” value was “around 4.5 min” and the “decrease in cAMP pEC50 in comparison with CP55,940” value is listed as ~ 1.0 log units. Also, the “cAMP ΔEmax (absolute magnitude percentage decrease from 100%)” value at human CB2 [1] is listed as 26.1 ± 3.6%. In addition, on human CB2 [1] (not significant vs 4.5 min), the “decrease of cAMP response potency during the early phase of stimulation” value was ~ 0.7 log units. Moreover, at human CB2 [2], the EC50 was 631 nM. At human CB2 [2] (mean over 20 min stimulation), the “smaller β-arrestin-2 pEC50 than CP55,940” value was ~ 1.0 log units, the “weaker β-arrestin-2 potency than UOSS77” value is on record as ~ 0.7 log units and the “β-arrestin-2 translocation ΔEmax (% increase above V)” value amounted to 7.9 ± 1.2%. On human CB2 [3], the affinity corresponds to a Ki of 813 nM, the “CB2/CB1 Selectivity” value is ~40 and the “displacement of [3H]-CP55,940 from CB2” value is “fully displaced”. The “reduction of CB2 pKi vs. UOSS77” value on human CB2 [3] (p = 0.015) worked out at 0.6 log units.

Take `Cc1c(C(=O)c2cccc3ccccc23)c2cccc3c2n1[C@H](CN1CCOCC1)CO3` [WIN55,212-2]: the “agonist type for β-arrestin-2 recruitment to CB2 in comparison with CP55,940” value with CB2 was “weak partial agonist”.
